# In article PMC2649009 (Journal of medicinal chemistry, 2008):
# Biological target: T1, human GIVA cPLA2 (Homo sapiens, UniProt P47712)
# T1 sequence (P47712 1-749): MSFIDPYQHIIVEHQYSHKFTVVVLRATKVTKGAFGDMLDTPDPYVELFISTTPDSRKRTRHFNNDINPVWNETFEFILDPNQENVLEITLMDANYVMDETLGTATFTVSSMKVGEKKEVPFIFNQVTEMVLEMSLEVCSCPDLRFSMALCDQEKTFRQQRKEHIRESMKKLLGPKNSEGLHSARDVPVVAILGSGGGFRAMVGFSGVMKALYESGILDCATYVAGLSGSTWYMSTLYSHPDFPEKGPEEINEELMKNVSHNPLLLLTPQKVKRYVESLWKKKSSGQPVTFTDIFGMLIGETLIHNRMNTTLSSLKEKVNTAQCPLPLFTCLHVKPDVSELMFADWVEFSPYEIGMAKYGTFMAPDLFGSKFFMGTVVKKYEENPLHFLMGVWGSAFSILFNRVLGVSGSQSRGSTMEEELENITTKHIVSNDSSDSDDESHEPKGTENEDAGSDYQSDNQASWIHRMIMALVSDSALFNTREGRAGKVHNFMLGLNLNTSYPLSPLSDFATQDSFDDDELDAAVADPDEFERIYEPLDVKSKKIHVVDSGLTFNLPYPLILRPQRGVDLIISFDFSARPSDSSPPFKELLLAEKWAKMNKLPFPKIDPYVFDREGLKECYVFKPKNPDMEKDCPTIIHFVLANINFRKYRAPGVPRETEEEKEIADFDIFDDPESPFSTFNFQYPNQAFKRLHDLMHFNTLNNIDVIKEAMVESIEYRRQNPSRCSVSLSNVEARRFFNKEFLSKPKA
# Assay: mixed micelle-based modified Dole assay, GIVA cPLA2 inhibition
# Assay type: biochemical
# Details: mole fraction of inhibitor in total substrate interface giving 50% inhibition
row,Compound,GIVA cPLA2 XI(50)
1,"CCCCCCCCCCCCCCCC(=O)C(F)(F)F [compound 6, palmitoyl trifluoromethyl ketone, reference compound]",0.0223 mole fraction
2,"CCCCCCCCCCCCCCC(F)C(=O)C(F)(F)F (centres unmarked) [compound 26, 1,1,1,3-Tetrafluoro-heptadecan-2-one]",0.0167 mole fraction
